Laboratory results as given in US20040234555A1, “Swine growth promoters and method of promoting swine growth” (priority 2001, published 2004).

How the values were obtained:
piglets = assay: Growth of piglets given feed with the additive from the 14th day after birth (Example 2); type: in vivo, pig
Description: Using piglets born during a period of from October through November in 2000, feeding was carried out on the 14th day after their birth. […] In this case, the test was carried out using 10 head in each plot, and the average values were calculated.

Large Yorkshire piglets = assay: Growth and blood examination of piglets after a single administration on the third day after birth (Example 1)
Description: Thereafter, usual management was carried out, feeding was started on the 14th day after birth, and body weights were measured and blood samples were collected on the 21st day after birth to carry out inspections in accordance with usual way. Also, body weights were measured at the time of shipping after about 6 months, and the number of days reaching a shipping body weight criterion of 110 kg (required days for 110 kg) was calculated. The tests were carried out using 12 animals in each plot, and the values were calculated as average values by excluding pigs which came off the test due to a disease and the like.
DG (daily gain; kg/day)=shipping body weight (kg)÷raised days (day)
Required days for 110 kg (day)=110 (kg)÷DG (kg/day)

[1] = 21st day after birth, treatment on 3rd day after birth

Cl.NCC(=O)CCC(=O)O [ALA, 5-aminolevulinic acid hydrochloride]
Required days for 110 kg (piglets; 10 mg 5-aminolevulinic acid hydrochloride per 1 kg feed, with or without 10 mg ferric ammonium citrate per 1 kg feed, 10 head per plot): 172 | Growth (in words) (piglets; feed additive from 14th day after birth): markedly enhanced | Body weight: relative value to 100 at the commencement of the test on the 3rd day after birth (Large Yorkshire piglets; 21st day after birth): 233% | B12: vitamin B12 concentration in serum (Large Yorkshire piglets; [1]): 240 pg/mL | Fe: serum iron concentration in serum (Large Yorkshire piglets; [1]): 44 µg/dL | Hb: hemoglobin concentration in whole blood sample (Large Yorkshire piglets; [1]): 8.5 g/dL | Ht: blood cell volume ratio in whole blood sample (Large Yorkshire piglets; [1]): 30.5% | TP: total serum protein concentration in serum (Large Yorkshire piglets; [1]): 5.8 g/dL | Required days for 110 kg (number of days reaching shipping body weight criterion of 110 kg) (Large Yorkshire piglets; calculated from shipping body weight after about 6 months, 110 kg ÷ daily gain): 183 days | Frequency of disease onset (Large Yorkshire piglets; examination about 6 months after birth, 12 animals per plot): 0 | Pigs which came off the test system due to a disease (Large Yorkshire piglets; in and after the 21st day): diseases were not found | Pigs which came off the test plots due to a disease and the like (Large Yorkshire piglets; until the 21st day after birth): not found
